Measurements reported in patent US6355619B1, “Peptide tumor cell growth inhibitors” (Board of Regents, The University of Texas System, priority 1996, dated 2002).
Where two headings read alike, the source gives them in different places.

Assays:
[1] = test system: adenocarcinoma from stomach AGS; assay: Tumor cell growth, AGS; assay type: cell-based
[2] = test system: C5a-stimulated neutrophil enzyme release; assay: β-glucuronidase release from neutrophils stimulated by C5a; assay type: cell-based, human; conditions: 100 nM C5a
Procedure: FIG. 8. The Effect of Ac-RRWWCR-NH2 (SEQ ID NO:1) on β-glucuronidase Release. Neutrophils pretreated with cytochalasin B were incubated with 100 nM IL-8 (●), 100 nM fMLP (▪), 100 nM C5a (_) or 100 nM leukotriene B4 ? or without any stimulant (◯) in the presence of increasing concentration of Ac-RRWWCR-NH2 (SEQ ID NO:1) for 30 min at 37° C. β-glucuronidase activity of supernatants were measured using phenolphthalein-glucuronic acid as substrate. Analysis of variance was used for multiple comparison.
Neutrophil enzyme release was studied by a modification of the method of Goldstein and colleagues (Goldstein et al., 1973). Cytochalasin B (Sigma Chemical Co.) was stored in dimethyl sulfoxide at a concentration of 5 mg/ml and was diluted to a concentration of 50 μg/ml in Hank's Balanced Salt Solution (HBSS) immediately before use. Cytochalasin B, 200 μl, was added to 1 ml of suspension of neutrophils, 6.25×10^6 cells/ml in HBSS, to achieve a final cytochalasin B concentration of […]. The solution was then incubated in 96 well plates at room temperature for 10 min. The stimulant, 100 μl, was added, and this cell suspension was incubated for 30 min at 37° C. The plates were centrifuged and 100 μl of supernatant was removed. […] After 16 hr incubation at 37° C., 200 μl of 0.2 M Glycine in 0.2 M NaCl, pH10.4 was added to each well and OD540 was measured as the enzyme activity.

human neutrophils = assay: Binding of the peptide to human neutrophils
[3] = test system: MGSA/GROα receptors on RPMI-7951 melanoma cells; assay: Binding of 125I-MGSA/GROα to RPMI-7951 melanoma cells; conditions: RPMI-7951, 1 nM 125I-labeled MGSA/GROα; read-out: EC50, inhibition of MGSA/GROα binding
Procedure: FIG. 11A. The binding of ^125I-labeled MGSA/GROα to melanoma cell lines, Hs 294T and RPMI-7951. The melanoma cells, 1×10^5, were incubated with 1 nM ^125I-MGSA/GROα in the presence of various concentrations of unlabeled MGSA/GROα. Binding inhibition curve with Hs 294T (closed circles) and RPMI-7951 (open circles). The lines shown in the graph are the best fit curves calculated using the London II computer program.
FIG. 13. The effect of Antileukinate on the binding of radiolabeled MGSA/GROα to the melanoma cell lines. The melanoma cells, Hs 294T (closed circles) and RPMI-7951 (open circles), were incubated with 1 nM ^125I-MGSA/GROα in the presence of different concentrations of Antileukinate. The lines shown in the graph are the best fit curves calculated using the London II computer program.
Recombinant human MGSA/GROα and IL-8 were purchased form Pepro Tech Inc. (Rocky Hill, N.J.) and radioactively labeled using ^125I-labeled Bolton-Hunter reagent (DuPont-NEN, Wilmington, Del.) (Bolton and Hunter, 1973). The labeled proteins were isolated using Sephadex G-25 column (Column PD-10, Pharmacia) pre-equilibrated with PBS containing 0.1% gelatin and stored at −70° C. after the addition of 1% bovine serum albumin.
Binding studies with melanoma cell lines were performed by the method of Horuk and colleagues (Horuk et al., 1993). Briefly, the cells (1×10^5 cells/well) in 24-well plates were washed two times with Hank's Balanced Salt Solution and incubated with ^125I-labeled MGSA/GROα or IL-8 in the buffer containing 1% bovine serum albumin at 4° C. for 3 hr. The incubation was terminated by vacuum aspiration of the supernatant. The cells were washed three times in binding buffer, solubilized by the addition of 200 μl of 1% SDS, and transferred to vials for counting. The non-specific binding was estimated by measuring the binding in the presence of 100-fold excess of non-labeled ligand. The binding parameters were calculated using the Lundon II computer program (Lundon Software Inc., Chagrin Falls, Ohio).

[4] = test system: A549 (adenocarcinoma of lung); assay: Growth of A549, cell count; assay type: cell-based; conditions: A549, 7 days, media replaced every 24 hours
Procedure: (§1) FIG. 20 The effect of Antileukinate on growth of A549 (adenocarcinoma of lung). A549 cells were plated at a density of 5×10^3 cells in 24-well plate with growth medium. After the cells adhered to the plate, supernatants were aspirated and culture media containing various concentrations of Antileukinate were added to the wells. The media was replaced every 24 hours and the cells were cultured for 7 days. After incubation, cells were detatched with trypsin-EDTA and the cell number was counted using a hemocytometer. Cell number was decreased in a dose-dependent manner and there are significant differences from control at concentrations greater than, or equal to 50 μM of Antileukinate (p<0.05).

RPMI-7951 = conditions: 16 hr
Procedure: (§2) The cell lines (4×10^5 cells/well) in RPMI-1640 medium containing 10% fetal bovine serum were incubated with 10 μCi of Na2^51CrO4 (DuPont NEN Co.) for 60 min at 37° C. in a 24 well tissue culture plate. The cells were washed 3 times and then incubated in cell culture medium for 30 min at 37° C. to allow spontaneous lysis of marginally viable cells. […] The cells were cultured for 16 hr at 37° C. and then the radioactivity in the supernatants was counted in a gamma radiation spectrometer. Quadriplicate wells received cell culture medium alone or 2% SDS to determine spontaneous and maximum release, respectively. The percentage lysis was calculated by using the following formula: [formula]

[5] = test system: adenocarcinoma from breast tissue MCF-7; assay: Tumor cell growth, MCF-7; assay type: cell-based
Hs 294T = conditions: 16 hr
Procedure: as §2

[6] = test system: NCI-H292 (squamous cell carcinoma of lung); assay: Growth of NCI-H292, cell count; assay type: cell-based; conditions: NCI-H292, 7 days, media replaced every 24 hour
Procedure: as §1, with “19.” for “20”, “NCI-H292 (squamous cell carcinoma” for “A549 (adenocarcinoma”, “NCI-H292” for “A549”, “hour” for “hours”

A375P melanoma cells = assay: Tumor cell growth, A375P; assay type: cell-based
IL-8 = IL-8 (Homo sapiens, UniProt P10145); assay: Interaction of the peptide with IL-8; assay type: binding
Chain of IL-8 (P10145 28-99): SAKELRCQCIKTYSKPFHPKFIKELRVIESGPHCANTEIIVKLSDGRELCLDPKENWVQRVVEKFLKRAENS

RRWWCR [Ac-RRWWCR-NH2]
effect on cell growth [1]: inhibits growth
effect on enzyme release stimulated by C5a [2]: did not affect the enzyme release
binding of the peptide to human neutrophils (human neutrophils): binds to human neutrophils
EC50 [3]: ~1 µM
concentrations with significant difference in cell number from control (p<0.05) [4]: ≥ 50 µM
% cell lysis (RPMI-7951; RPMI-7951, 1 μM peptide): −0.8 ± 2.2%
% cell lysis (RPMI-7951; RPMI-7951, 5 μM peptide): −2.6 ± 3.7%
% cell lysis (RPMI-7951; RPMI-7951, 20 μM peptide): −3.4 ± 6.3%
% cell lysis (RPMI-7951; RPMI-7951, 100 μM peptide): 6.8 ± 11.1%
effect on cell growth [5]: inhibits growth
% cell lysis (Hs 294T; 1 μM peptide): −4.0 ± 5.2%
% cell lysis (Hs 294T; 5 μM peptide): −3.2 ± 7.2%
% cell lysis (Hs 294T; 20 μM peptide): −1.6 ± 3.7%
% cell lysis (Hs 294T; 100 μM peptide): 2.4 ± 7.9%
concentrations with significant difference in cell number from control (p<0.05) [6]: ≥ 50 µM
effect on cell growth (A375P melanoma cells): suppresses the growth
interaction of the peptide with IL-8 (IL-8): does not interact with IL-8
